{"source": "patent US20160115540A1", "about": "“PRODRUGS AND DRUGS” (Biogen MA Inc., priority 2013, published 2016)", "system": "jejunum", "test": "Transcriptional profiling on Affymetrix GeneChips, single dose, naïve mice: jejunum", "assay_type": "in vivo, C57BL/6 mice", "conditions": "for Number of differentially expressed genes identified: Jenjunum: Naïve, Single Dose", "protocol": "Treated mice were sacrificed at 2, 7, or 12 hours. Tissues (liver, spleen, kidney, jejunum, cortex, hippocampus, striatum and whole blood) were collected and analyzed by transcriptional profiling on mouse Affymetrix GeneChips.\nTissues (liver, spleen, kidney, jejunum, cortex, hippocampus, striatum and whole blood) were collected and analyzed by transcriptional profiling on mouse Affymetrix GeneChips.\nAnimals were exposed to CO2 and whole blood collected via cardiac puncture. Two 100 μl aliquots of whole blood were collected in 1.5 mL microcentrifuge tubes and snap frozen in liquid nitrogen. Peripheral (liver, spleen, kidney and jejunum) and CNS brain (cerebellum, hippocampus, striatum and cortex) tissues were harvested and snap frozen in liquid nitrogen, with special care taken to collect tissues of similar size and from the same location. All samples were stored at −80° C. until RNA extraction was conducted.\nFor RNA preparation, frozen tissues were placed in 2 mL RNAse-free 96-well blocks with 1.5 mL QIAzol Lysis Reagent (QIAgen) and a 3.2 mm stainless steel bead (BioSpec Products, Bartlesville, Okla.). Tissues were disrupted for four cycles of 45 seconds in a Mini-Beadbeater (Biospec Products). RNA was extracted in chloroform and the aqueous phase was mixed with an equal volume of 70% ethanol. Extracted RNA was applied to RNeasy 96 plates and purified by the spin method according to the manufacturer's protocol (RNeasy 96 Universal Tissue Protocol, QIAgen, Hilden Germany).\nAutomated sample amplifications and biotin labelings were carried out using the NuGEN Ovation RNA Amplification system V2 (Cat #3100), Ovation WB reagent (Cat #1300) and Encore Biotin module (Cat #4200) (NuGEN Technologies, Inc, San Carlos, Calif.) according to manufacturer's recommendations using an Arrayplex automated liquid handler (Beckman Coulter, Indianapolis, Ind.). Two micrograms of biotin labeled sscDNA probe were hybridized to Affymetrix GeneChip Affymetrix HT_MG-430_PM plate arrays with modified conditions as described in Allaire et al. Washing and staining of the hybridized arrays were completed as described in the GeneChip Expression analysis technical manual for HT plate arrays using the Genechip® Array Station (Affymetrix, Santa Clara, Calif.) with modifications as described in Allaire et al. The processed GeneChip® plate arrays were scanned using GeneTitan scanner (Affymetrix, Santa Clara, Calif.).\nAffymetrix scans were subject to quality control (QC) measures. These tests included a visual inspection of the distribution of raw signal intensities and an assessment of RNA degradation, relative log expression (RLE), and normalized unsealed standard error (NUSE). All sample scans that passed these QC metrics were included in the analysis.\nAll CEL files were subjected to GC-content-based Robust Multi-array Average (GCRMA) normalization (version 2.20.0) (Irizarry R A, et al. Nucleic Acids Res 2003; 31:e15; Li C, et al. Genome Biol 2001; 2:[…]0032). Expression levels were log (base 2) transformed.\nAll calculations and analyses were carried out using R (version 2.11.1) and Bioconductor computational tools (Gentleman R. Springer Science+Business Media 2005).", "note": "Counter-ions that a name gives are not always drawn.", "data": [{"smiles": "COC(=O)/C=C/C(=O)OC", "note": "[DMF, dimethyl fumarate]", "values": [{"measurement": "Pir (1429001_PM_at) differential expression", "setting": "Jejunum, 12 hr", "result": 3.79}, {"measurement": "Setd4 (1435405_PM_at) differential expression", "setting": "Jejunum, 12 hr", "result": 1.66}, {"measurement": "Slc5a4b (1422757_PM_at) differential expression", "setting": "Jejunum, 12 hr", "result": 2.21}, {"measurement": "Ugt2b5 (1419622_PM_at) differential expression", "setting": "Jejunum, 12 hr", "result": 4.92}, {"measurement": "Ugt2b36 (1455595_PM_at) differential expression", "setting": "Jejunum, 12 hr", "result": 2.94}, {"measurement": "Number of differentially expressed genes identified: Jenjunum", "setting": "100 mpk DMF-vs-100 mpk MMF, 2 h after last dosing", "result": 1}, {"measurement": "Number of differentially expressed genes identified: Jenjunum", "setting": "100 mpk DMF-vs-100 mpk MMF, 7 h after last dosing", "result": 2}, {"measurement": "Number of differentially expressed genes identified: Jenjunum", "setting": "100 mpk DMF-vs-100 mpk MMF, 12 h after last dosing", "result": 0}, {"measurement": "Number of differentially expressed genes identified: Jenjunum", "setting": "100 mpk, vs Vehicle, 2 h after last dosing", "result": 62}, {"measurement": "Number of differentially expressed genes identified: Jenjunum", "setting": "100 mpk, vs Vehicle, 7 h after last dosing", "result": 44}, {"measurement": "Number of differentially expressed genes identified: Jenjunum", "setting": "100 mpk, vs Vehicle, 12 h after last dosing", "result": 37}, {"measurement": "FC 9130221J17Rik (1443159_PM_at)", "setting": "jejunum, 100DMF-vs-Veh, 2 h", "result": 2.30}, {"measurement": "FC Acss2 (1446542_PM_at)", "setting": "jejunum, 100DMF-vs-Veh, 2 h", "result": 1.68}, {"measurement": "FC Akr1b8 (1448894_PM_at)", "setting": "jejunum, 100DMF-vs-Veh, 2 h", "result": 7.35}, {"measurement": "FC Akr1c13 (1418672_PM_at)", "setting": "jejunum, 100DMF-vs-Veh, 2 h", "result": 1.62}, {"measurement": "FC Akr1c19 (1455454_PM_at)", "setting": "jejunum, 100DMF-vs-Veh, 2 h", "result": 2.45}, {"measurement": "FC Areg (1421134_PM_at)", "setting": "jejunum, 100DMF-vs-Veh, 2 h", "result": 3.58}, {"measurement": "FC Cbr1 (1460196_PM_at)", "setting": "jejunum, 100DMF-vs-Veh, 2 h", "result": 1.55}, {"measurement": "FC Cbr3 (1427912_PM_at)", "setting": "jejunum, 100DMF-vs-Veh, 2 h", "result": 54.72}, {"measurement": "FC Ces1e (1419510_PM_at)", "setting": "jejunum, 100DMF-vs-Veh, 2 h", "result": 1.85}, {"measurement": "FC Ces1f (1424266_PM_s_at)", "setting": "jejunum, 100DMF-vs-Veh, 2 h", "result": 2.48}, {"measurement": "FC Ces1g (1449486_PM_at)", "setting": "jejunum, 100DMF-vs-Veh, 2 h", "result": 4.06}, {"measurement": "FC Dnase2a (1430135_PM_at)", "setting": "jejunum, 100DMF-vs-Veh, 2 h", "result": 1.77}, {"measurement": "FC Dppa5a (1416552_PM_at)", "setting": "jejunum, 100DMF-vs-Veh, 2 h", "result": 3.07}, {"measurement": "FC Dusp4 1428834_PM_at", "setting": "jejunum, 100DMF-vs-Veh, 2 h", "result": 1.51}, {"measurement": "FC Entpd5 (1433763_PM_at)", "setting": "jejunum, 100DMF-vs-Veh, 2 h", "result": 1.53}, {"measurement": "FC Ereg (1419431_PM_at)", "setting": "jejunum, 100DMF-vs-Veh, 2 h", "result": 2.50}, {"measurement": "FC Ero1l (1419030_PM_at)", "setting": "jejunum, 100DMF-vs-Veh, 2 h", "result": 1.92}, {"measurement": "FC Ero1l (1449324_PM_at)", "setting": "jejunum, 100DMF-vs-Veh, 2 h", "result": 1.50}, {"measurement": "FC Esd (1441604_PM_at)", "setting": "jejunum, 100DMF-vs-Veh, 2 h", "result": 1.71}, {"measurement": "FC Fam13a (1456611_PM_at)", "setting": "jejunum, 100DMF-vs-Veh, 2 h", "result": 1.54}, {"measurement": "FC Gclc (1424296_PM_at)", "setting": "jejunum, 100DMF-vs-Veh, 2 h", "result": 4.25}, {"measurement": "FC Gclc (1455959_PM_s_at)", "setting": "jejunum, 100DMF-vs-Veh, 2 h", "result": 3.13}, {"measurement": "FC Gsr (1421816_PM_at)", "setting": "jejunum, 100DMF-vs-Veh, 2 h", "result": 2.23}, {"measurement": "FC Gss (1441931_PM_x_at)", "setting": "jejunum, 100DMF-vs-Veh, 2 h", "result": 1.95}, {"measurement": "FC Gss (1448273_PM_at)", "setting": "jejunum, 100DMF-vs-Veh, 2 h", "result": 1.67}, {"measurement": "FC Gsta2 (1421040_PM_a_at)", "setting": "jejunum, 100DMF-vs-Veh, 2 h", "result": 3.82}, {"measurement": "FC Gsta3 (1423436_PM_at)", "setting": "jejunum, 100DMF-vs-Veh, 2 h", "result": 3.23}, {"measurement": "FC Gsta3 (1423437_PM_at)", "setting": "jejunum, 100DMF-vs-Veh, 2 h", "result": 4.03}, {"measurement": "FC Gstm1 (1416416_PM_x_at)", "setting": "jejunum, 100DMF-vs-Veh, 2 h", "result": 2.30}, {"measurement": "FC Gstm1 (1425627_PM_x_at)", "setting": "jejunum, 100DMF-vs-Veh, 2 h", "result": 2.57}, {"measurement": "FC Gstm1 (1448330_PM_at)", "setting": "jejunum, 100DMF-vs-Veh, 2 h", "result": 2.47}, {"measurement": "FC Gstm3 (1427473_PM_at)", "setting": "jejunum, 100DMF-vs-Veh, 2 h", "result": 2.37}, {"measurement": "FC Gstm3 (1427474_PM_s_at)", "setting": "jejunum, 100DMF-vs-Veh, 2 h", "result": 1.56}, {"measurement": "FC LOC100504040 (1457279_PM_at)", "setting": "jejunum, 100DMF-vs-Veh, 2 h", "result": 2.18}, {"measurement": "FC Mafg (1448916_PM_at)", "setting": "jejunum, 100DMF-vs-Veh, 2 h", "result": 2.20}, {"measurement": "FC Nqo1 (1423627_PM_at)", "setting": "jejunum, 100DMF-vs-Veh, 2 h", "result": 2.16}, {"measurement": "FC Osgin1 (1424022_PM_at)", "setting": "jejunum, 100DMF-vs-Veh, 2 h", "result": 2.08}, {"measurement": "FC Prss8 (1418320_PM_at)", "setting": "jejunum, 100DMF-vs-Veh, 2 h", "result": 2.60}, {"measurement": "FC Ptk6 (1442923_PM_at)", "setting": "jejunum, 100DMF-vs-Veh, 2 h", "result": "−2.42"}, {"measurement": "FC Setd4 (1425239_PM_at)", "setting": "jejunum, 100DMF-vs-Veh, 2 h", "result": 2.09}, {"measurement": "FC Setd4 (1435405_PM_at)", "setting": "jejunum, 100DMF-vs-Veh, 2 h", "result": 1.91}, {"measurement": "FC Setd4 (1460373_PM_a_at)", "setting": "jejunum, 100DMF-vs-Veh, 2 h", "result": 1.91}, {"measurement": "FC Slc35e3 (1428805_PM_at)", "setting": "jejunum, 100DMF-vs-Veh, 2 h", "result": 1.53}, {"measurement": "FC Slc40a1 (1417061_PM_at)", "setting": "jejunum, 100DMF-vs-Veh, 2 h", "result": 2.33}, {"measurement": "FC Srr (1453421_PM_at)", "setting": "jejunum, 100DMF-vs-Veh, 2 h", "result": 1.99}, {"measurement": "FC Srxn1 (1425351_PM_at)", "setting": "jejunum, 100DMF-vs-Veh, 2 h", "result": 1.71}, {"measurement": "FC Tifa (1426501_PM_a_at)", "setting": "jejunum, 100DMF-vs-Veh, 2 h", "result": "−2.43"}]}]}
